# “And” between values parts separate entries of the source, which are not always exact repeats. Identical values can stand only once. Inconclusive results and toxic doses are left out.
# Tested on: CD2F1 mice, L1210 leukemia ip, survival T/C
# Test: NCI In Vivo Anticancer Drug Screen. Data for tumor model L1210 Leukemia (intraperitoneal) in CD2F1 (CDF1) mice
# Conditions: endpoint: mean survival time, higher = longer survival
# Method in brief: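 Compound-dosed mice with transplantable tumor versus matched vehicle controls; endpoint ratio T/C reported.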
# [1] = dose: 100.0 mg/kg/injection, schedule: Q04DX002 (ip), vehicle: saline with Tween-80
# [2] = dose: 200.0 mg/kg/injection, schedule: Q04DX002 (ip), vehicle: saline with Tween-80
# [3] = dose: 100.0 mg/kg/injection, schedule: Q04DX003 (ip), vehicle: saline with Tween-80
# [4] = dose: 200.0 mg/kg/injection, schedule: Q04DX003 (ip), vehicle: saline with Tween-80
# [5] = dose: 400.0 mg/kg/injection, schedule: Q04DX003 (ip), vehicle: saline with Tween-80
# [6] = dose: 50.0 mg/kg/injection, schedule: Q01DX009 (ip), vehicle: saline with Tween-80
# [7] = dose: 100.0 mg/kg/injection, schedule: Q01DX009 (ip), vehicle: saline with Tween-80
# [8] = dose: 200.0 mg/kg/injection, schedule: Q01DX009 (ip), vehicle: saline with Tween-80
# [9] = dose: 400.0 mg/kg/injection, schedule: Q04DX002 (ip), vehicle: saline with Tween-80
# [10] = dose: 25.0 mg/kg/injection, schedule: Q01DX009 (ip), vehicle: saline with Tween-80
# [11] = dose: 100.0 mg/kg/injection, schedule: Q01DX001 (ip), vehicle: saline with Tween-80
# [12] = dose: 200.0 mg/kg/injection, schedule: Q01DX001 (ip), vehicle: saline
# [13] = dose: 400.0 mg/kg/injection, schedule: Q01DX001 (ip), vehicle: saline
# [14] = dose: 50.0 mg/kg/injection, schedule: Q04DX002 (ip), vehicle: saline with Tween-80
# [15] = dose: 200.0 mg/kg/injection, schedule: Q01DX001 (ip), vehicle: saline with Tween-80
# [16] = dose: 400.0 mg/kg/injection, schedule: Q01DX009 (ip), vehicle: saline with Tween-80
# [17] = dose: 100.0 mg/kg/injection, schedule: Q04DX003 (ip), vehicle: other
# [18] = dose: 200.0 mg/kg/injection, schedule: Q04DX003 (ip), vehicle: other
# [19] = dose: 100.0 mg/kg/injection, schedule: Q01DX001 (ip), vehicle: saline
smiles,measurement,setting,value
Cc1ncc(CO)c(CO)c1O,T/C,"dose: 100.0 mg/kg/injection, schedule: Q01DX009 (ip), vehicle: saline",100 % of control
same,T/C,"dose: 200.0 mg/kg/injection, schedule: Q01DX009 (ip), vehicle: saline",94 % of control
same,T/C,"dose: 400.0 mg/kg/injection, schedule: Q01DX009 (ip), vehicle: saline",95 % of control
COC1CCCC[CH]1[Hg][Br] (centres undefined),T/C,"dose: 3.13 mg/kg/injection, schedule: Q01DX009 (ip), vehicle: saline with Tween-80",102 % of control
O=C(OCC#CCOC(=O)c1c(Cl)ccc(Cl)c1Cl)c1c(Cl)ccc(Cl)c1Cl,T/C,[1],89 % of control
same,T/C,[2],89 % of control
O=c1c2ccccc2sc2cccc(Sc3ccccc3)c12,T/C,[3],95 % of control
same,T/C,[4],96 % of control
same,T/C,[5],91 % of control
O=C1c2ccccc2C(=O)N1CN1C(=O)c2ccccc2C1=O,T/C,[6],93 % of control
same,T/C,[7],92 % of control
same,T/C,[8],93 % of control
CC12CCC(C1)C(C)(C)C2(O)c1ccccc1 (centres undefined),T/C,[3],92 % of control
O=C(CC(=O)c1ccc(Cl)cc1)Cc1ccc2ccccc2n1,T/C,[1],97 % of control
same,T/C,[2],97 % of control
same,T/C,[9],97 % of control
c1nc(SSc2ncnc3nc[nH]c23)c2[nH]cnc2n1,T/C,"dose: 12.5 mg/kg/injection, schedule: Q01DX009 (ip), vehicle: saline with Tween-80",186 % of control
same,T/C,[10],151 % of control
same,T/C,"dose: 30.0 mg/kg/injection, schedule: Q01DX001 (ip), vehicle: saline with Tween-80",150 % of control
same,T/C,"dose: 66.0 mg/kg/injection, schedule: Q01DX001 (ip), vehicle: saline with Tween-80",157 % of control
same,T/C,[11],155 % of control
same,T/C,"dose: 150.0 mg/kg/injection, schedule: Q01DX001 (ip), vehicle: saline with Tween-80",162 % of control
CCOC(=O)c1cc(C)nc2c(Cl)cc(Cl)cc12,T/C,[7],87 % of control
same,T/C,[3],87 % of control
same,T/C,[8],87 % of control
same,T/C,[4],88 % of control
same,T/C,[5],86 % of control
O=C1C=CC(=O)O1 (tested in a mixture with another compound),T/C,"dose: 1.56 mg/kg/injection, schedule: Q01DX001 (ip), vehicle: other",109 % of control
same,T/C,"dose: 1.56 mg/kg/injection, schedule: Q04DX003 (ip), vehicle: other",95 % of control
same,T/C,"dose: 3.12 mg/kg/injection, schedule: Q01DX001 (ip), vehicle: other",105 % of control
same,T/C,"dose: 3.12 mg/kg/injection, schedule: Q04DX003 (ip), vehicle: other",97 % of control
same,T/C,"dose: 6.25 mg/kg/injection, schedule: Q04DX003 (ip), vehicle: other",97 % of control
same,T/C,"dose: 50.0 mg/kg/injection, schedule: Q01DX001 (ip), vehicle: saline",115 % of control
same,T/C,[12],117 % of control
same,T/C,[13],117 % of control
same,T/C,"dose: 1000.0 mg/kg/injection, schedule: Q01DX001 (ip), vehicle: saline",121 % of control
O=C(N/N=C/c1ccc(O)cc1)c1ccncc1,T/C,[14],95 % of control
same,T/C,[1],91 % of control
same,T/C,[2],100 % of control
same,T/C,[9],88 % of control
O=C(O)CCn1cccc1,T/C,[11],91 % of control
same,T/C,[15],89 % of control
COc1ccc(SC(=O)N(C)C)cc1,T/C,[10],100 % of control
same,T/C,[6],103 % of control
same,T/C,[7],95 % of control and 98 % of control
O=C(O)c1cc(Cl)nc(Cl)c1,T/C,[11],94 % of control
same,T/C,[15],97 % of control
same,T/C,"dose: 400.0 mg/kg/injection, schedule: Q01DX001 (ip), vehicle: saline with Tween-80",92 % of control
CC(=O)c1ccccc1OC(=O)c1ccccc1,T/C,[7],100 % of control
same,T/C,[3],107 % of control
same,T/C,[8],91 % of control
same,T/C,[4],101 % of control
same,T/C,[16],93 % of control
same,T/C,[5],104 % of control
CCc1ccc2c(c1)N(CCCN(CCCl)CCCl)c1ccccc1S2,T/C,"dose: 18.0 mg/kg/injection, schedule: Q01DX001 (ip), vehicle: saline",97 % of control
same,T/C,"dose: 28.0 mg/kg/injection, schedule: Q01DX001 (ip), vehicle: saline",108 % of control
same,T/C,"dose: 40.0 mg/kg/injection, schedule: Q01DX001 (ip), vehicle: saline",103 % of control
same,T/C,"dose: 60.0 mg/kg/injection, schedule: Q01DX001 (ip), vehicle: saline with Tween-80",90 % of control
COC(=O)[C@@H]1c2cc3c(c(O)c2[C@@H](OC2OC(C)C(OC)C(C)(OC)C2OC)C[C@]1(C)O)C(=O)c1c(O)cc2c(c1C3=O)O[C@H]1O[C@]2(C)[C@H](O)[C@@H](N(C)C)[C@@H]1O (some centres undefined),T/C,"dose: 0.25 mg/kg/injection, schedule: Q01DX009 (ip), vehicle: other",120 % of control and 112 % of control
same,T/C,"dose: 0.5 mg/kg/injection, schedule: Q01DX009 (ip), vehicle: other",116 % of control and 108 % of control
same,T/C,"dose: 1.0 mg/kg/injection, schedule: Q01DX009 (ip), vehicle: other",93 % of control and 110 % of control
Nc1ccc(-c2ccc(N)cc2)cc1,T/C,[7],94 % of control
same,T/C,[3],101 % of control
same,T/C,[8],90 % of control
same,T/C,[4],101 % of control
same,T/C,[16],100 % of control
same,T/C,[5],96 % of control
C[Si](C)(C)C1C=CC=C1,T/C,[1],100 % of control
same,T/C,[2],100 % of control
same,T/C,[9],92 % of control
O=C1CCC(C(=O)Nc2ccc(Cl)cc2Cl)N1 (centres undefined),T/C,"dose: 25.0 mg/kg/injection, schedule: Q04DX002 (ip), vehicle: saline with Tween-80",98 % of control
same,T/C,[14],98 % of control
same,T/C,[1],98 % of control
same,T/C,[2],118 % of control
same,T/C,[9],97 % of control
CCCCCCCCCCCC(=O)CCCCC,T/C,[17],96 % of control
same,T/C,[18],97 % of control
same,T/C,"dose: 400.0 mg/kg/injection, schedule: Q04DX003 (ip), vehicle: other",97 % of control
COc1ccc(-c2cnc(C(N)=O)c(=O)[nH]2)cc1,T/C,[7],100 % of control
same,T/C,[8],96 % of control
same,T/C,[16],101 % of control
O=C(N/N=C/c1cccc([N+](=O)[O-])c1)c1ccccc1,T/C,[7],107 % of control
same,T/C,[8],102 % of control
same,T/C,[16],94 % of control
O=C(CSCC(=O)c1ccc(Br)cc1)c1ccc(Br)cc1,T/C,[19],112 % of control
same,T/C,[12],98 % of control
same,T/C,[13],101 % of control
Cc1c(C#N)sc2ccccc12,T/C,"dose: 50.0 mg/kg/injection, schedule: Q01DX009 (ip), vehicle: other",112 % of control
same,T/C,"dose: 100.0 mg/kg/injection, schedule: Q01DX009 (ip), vehicle: other",95 % of control
same,T/C,[17],109 % of control
same,T/C,[18],92 % of control
CCOC(C[N+](C)(C)C)OCC,T/C,[6],100 % of control
same,T/C,[7],94 % of control
O=C(/C=C/c1ccc(Cl)c(Cl)c1)c1ccccc1,T/C,"dose: 50.0 mg/kg/injection, schedule: Q01DX009 (ip), vehicle: Klucel (hydroxypropylcellulose) (HPC)",105 % of control
same,T/C,"dose: 100.0 mg/kg/injection, schedule: Q01DX009 (ip), vehicle: Klucel (hydroxypropylcellulose) (HPC)",98 % of control
COC(=O)C(C)NC(=O)C(CO)NC(=O)c1cnc2ccccc2n1 (centres undefined),T/C,[19],98 % of control
same,T/C,[12],102 % of control
same,T/C,[13],94 % of control
CC1=C(/C=C/C(=O)CC(O)(C(F)(F)F)C(F)(F)F)C(C)(C)CCC1,T/C,[3],104 % of control
same,T/C,[4],98 % of control
same,T/C,[5],101 % of control
CCCC(CCC)(C(N)=O)C(=O)O,T/C,[19],97 % of control
same,T/C,[12],97 % of control
same,T/C,[13],94 % of control

# From PubChem BioAssay AID256 (DTP/NCI, 2004)
